The source made the active and inactive calls.
What was measured:
[1] = biological target: T1, High affinity choline transporter 1 (Homo sapiens, UniProt Q9GZV3); assay: human choline transporter blockers, potency – cell-based, 5-point CRC, membrane potential dye, dose response (AID 504840); type: functional
T1 sequence (Q9GZV3 whole entry): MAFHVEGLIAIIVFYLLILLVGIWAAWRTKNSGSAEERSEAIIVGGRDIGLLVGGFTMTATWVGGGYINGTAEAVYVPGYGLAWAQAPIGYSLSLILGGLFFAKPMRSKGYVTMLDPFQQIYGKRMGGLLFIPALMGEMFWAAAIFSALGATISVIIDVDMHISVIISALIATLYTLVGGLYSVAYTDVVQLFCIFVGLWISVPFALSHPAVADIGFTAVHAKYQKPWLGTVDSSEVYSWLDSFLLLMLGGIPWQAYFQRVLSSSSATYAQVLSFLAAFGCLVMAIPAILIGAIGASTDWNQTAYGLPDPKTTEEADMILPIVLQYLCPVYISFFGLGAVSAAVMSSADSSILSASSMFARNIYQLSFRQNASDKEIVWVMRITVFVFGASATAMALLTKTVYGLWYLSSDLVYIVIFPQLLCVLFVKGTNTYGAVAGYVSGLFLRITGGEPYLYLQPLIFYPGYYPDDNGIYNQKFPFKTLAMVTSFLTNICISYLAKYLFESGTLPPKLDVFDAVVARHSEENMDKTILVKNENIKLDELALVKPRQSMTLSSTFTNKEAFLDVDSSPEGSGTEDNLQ

[2] = biological target: T1, High affinity choline transporter 1; assay: human choline transporter blockers, potency – cell-based, 10-point CRC, membrane potential dye, dose response (AID 588401); type: functional;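 also: membrane potential dye fluorescence of choline-evoked depolarization via CHT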
[3] = cAMP pathway inhibition in counterscreen cell line – TR-FRET cAMP detection, counter-screen for MC4R biased antagonist project, dose response (AID 602305); type: functional, cell-based;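 also: U2OS cells stimulated with forskolin near its EC80 as the cAMP inducer; potency is for inhibition of forskolin-stimulated cAMP signaling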
[4] = biological target: Melanocortin receptor 4 (Homo sapiens, UniProt P32245); assay: inhibitors of MC4R cAMP signaling – cell-based, TR-FRET, biased antagonists, dose response (AID 602298); type: functional;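 also: antagonist potency against agonist-stimulated cAMP production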
Chain of Melanocortin receptor 4 (P32245 whole entry): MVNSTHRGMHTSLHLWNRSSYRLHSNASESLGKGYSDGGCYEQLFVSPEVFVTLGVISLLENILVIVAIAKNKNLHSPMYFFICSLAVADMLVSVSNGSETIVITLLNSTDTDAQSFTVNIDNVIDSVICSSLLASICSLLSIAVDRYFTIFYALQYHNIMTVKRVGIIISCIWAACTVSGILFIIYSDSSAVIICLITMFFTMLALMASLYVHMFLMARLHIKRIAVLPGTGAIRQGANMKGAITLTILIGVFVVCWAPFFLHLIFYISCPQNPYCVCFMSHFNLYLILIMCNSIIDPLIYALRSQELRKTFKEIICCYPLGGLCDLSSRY

[5] = tested on: HEK293; assay: cells; type: functional, cell-based; settings: Homo sapiens
[6] = tested on: HEK293; assay: NOD2 signaling inhibitors in MDP-stimulated cells, cell-based, uHTS, luminescence (AID 2001); type: functional; settings: Homo sapiens
[7] = biological target: T2, Fatty acid synthase (Homo sapiens, UniProt P49327); assay: inhibition of human FAS-TE enzyme activity – biochemical, endpoint fluorescence intensity, uHTS hits, dose response (AID 624327); type: functional;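 also: fluorescence from hydrolysis of an O-methyl fluorescein acyl ester substrate by the enzyme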
T2 sequence (P49327 whole entry): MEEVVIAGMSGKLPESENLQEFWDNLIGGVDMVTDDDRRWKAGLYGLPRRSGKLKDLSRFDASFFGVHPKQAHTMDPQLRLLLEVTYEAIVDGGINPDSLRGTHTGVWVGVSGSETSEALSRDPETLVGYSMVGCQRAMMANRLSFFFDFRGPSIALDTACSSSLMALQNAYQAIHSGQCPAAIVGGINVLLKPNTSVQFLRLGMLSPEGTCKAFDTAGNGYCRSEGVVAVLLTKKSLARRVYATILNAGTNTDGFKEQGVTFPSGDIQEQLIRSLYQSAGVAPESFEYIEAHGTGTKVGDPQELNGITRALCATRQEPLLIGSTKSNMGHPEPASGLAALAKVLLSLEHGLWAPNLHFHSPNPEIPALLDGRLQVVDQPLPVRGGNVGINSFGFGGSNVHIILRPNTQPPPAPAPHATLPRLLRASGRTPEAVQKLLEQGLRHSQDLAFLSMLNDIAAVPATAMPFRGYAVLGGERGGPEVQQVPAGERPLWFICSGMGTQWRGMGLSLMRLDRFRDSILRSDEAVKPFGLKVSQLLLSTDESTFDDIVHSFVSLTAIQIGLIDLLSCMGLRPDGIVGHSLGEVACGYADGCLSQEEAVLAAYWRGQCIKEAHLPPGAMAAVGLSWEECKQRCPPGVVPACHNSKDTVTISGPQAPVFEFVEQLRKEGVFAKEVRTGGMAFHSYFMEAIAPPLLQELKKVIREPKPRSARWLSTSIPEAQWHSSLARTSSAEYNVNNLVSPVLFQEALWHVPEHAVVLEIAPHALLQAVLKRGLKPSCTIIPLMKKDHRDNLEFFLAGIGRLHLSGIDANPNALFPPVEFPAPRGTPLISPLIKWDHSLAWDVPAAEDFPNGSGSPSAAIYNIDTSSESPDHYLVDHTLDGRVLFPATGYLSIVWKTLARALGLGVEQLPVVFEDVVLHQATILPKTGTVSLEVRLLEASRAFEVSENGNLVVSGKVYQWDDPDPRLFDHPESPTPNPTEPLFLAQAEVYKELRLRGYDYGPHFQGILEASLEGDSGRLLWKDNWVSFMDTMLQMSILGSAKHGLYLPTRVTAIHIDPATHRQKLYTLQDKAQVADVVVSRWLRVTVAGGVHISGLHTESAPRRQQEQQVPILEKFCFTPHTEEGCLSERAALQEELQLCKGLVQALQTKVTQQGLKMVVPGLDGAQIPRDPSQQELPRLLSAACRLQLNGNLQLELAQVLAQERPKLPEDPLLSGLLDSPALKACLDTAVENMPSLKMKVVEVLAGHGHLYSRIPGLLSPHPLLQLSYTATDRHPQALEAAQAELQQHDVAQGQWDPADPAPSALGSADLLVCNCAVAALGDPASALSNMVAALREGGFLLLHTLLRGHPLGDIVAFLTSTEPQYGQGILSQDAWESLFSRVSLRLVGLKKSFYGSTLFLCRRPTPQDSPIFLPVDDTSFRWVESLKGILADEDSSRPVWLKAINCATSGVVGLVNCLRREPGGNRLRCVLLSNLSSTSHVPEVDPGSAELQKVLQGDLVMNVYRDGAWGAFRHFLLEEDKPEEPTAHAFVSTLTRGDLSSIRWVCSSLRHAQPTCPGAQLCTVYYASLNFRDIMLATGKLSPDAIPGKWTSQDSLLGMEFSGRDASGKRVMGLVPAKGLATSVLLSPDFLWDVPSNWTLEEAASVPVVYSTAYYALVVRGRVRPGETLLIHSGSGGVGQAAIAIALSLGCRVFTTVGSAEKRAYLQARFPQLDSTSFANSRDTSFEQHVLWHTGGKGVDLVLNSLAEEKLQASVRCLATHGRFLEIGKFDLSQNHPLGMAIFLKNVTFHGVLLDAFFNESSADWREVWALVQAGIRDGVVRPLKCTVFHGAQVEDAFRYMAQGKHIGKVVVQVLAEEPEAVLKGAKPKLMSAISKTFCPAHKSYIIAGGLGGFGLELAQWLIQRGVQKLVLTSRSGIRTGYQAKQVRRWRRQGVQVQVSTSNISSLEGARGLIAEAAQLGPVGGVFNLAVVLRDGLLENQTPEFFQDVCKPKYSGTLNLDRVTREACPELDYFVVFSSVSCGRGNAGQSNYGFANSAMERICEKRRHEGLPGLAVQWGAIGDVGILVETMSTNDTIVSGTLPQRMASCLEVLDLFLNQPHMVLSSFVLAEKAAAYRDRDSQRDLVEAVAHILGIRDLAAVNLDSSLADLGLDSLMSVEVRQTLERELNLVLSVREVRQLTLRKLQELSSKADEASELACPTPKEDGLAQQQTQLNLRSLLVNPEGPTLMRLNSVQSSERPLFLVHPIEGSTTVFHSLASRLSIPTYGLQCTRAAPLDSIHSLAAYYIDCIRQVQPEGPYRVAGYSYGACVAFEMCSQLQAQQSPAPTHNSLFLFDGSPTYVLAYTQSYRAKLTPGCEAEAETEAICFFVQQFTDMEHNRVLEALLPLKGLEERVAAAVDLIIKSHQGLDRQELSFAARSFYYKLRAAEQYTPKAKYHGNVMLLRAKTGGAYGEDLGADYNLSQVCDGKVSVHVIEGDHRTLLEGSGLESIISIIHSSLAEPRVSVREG

[8] = biological target: Beta Lactamase (Pseudomonas aeruginosa, UniProt Q932Y6); assay: BLA reporter interference, concentration series – BLA reporter cells, FRET fluorescence, artefact control for TLR9-MyD88 binding inhibitor project, dose response (AID 588341); type: cell-based;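 also: cell based assay in CHO-K1 cells stably expressing beta-lactamase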
Chain of Beta Lactamase (Q932Y6 whole entry, the tested form may be a part): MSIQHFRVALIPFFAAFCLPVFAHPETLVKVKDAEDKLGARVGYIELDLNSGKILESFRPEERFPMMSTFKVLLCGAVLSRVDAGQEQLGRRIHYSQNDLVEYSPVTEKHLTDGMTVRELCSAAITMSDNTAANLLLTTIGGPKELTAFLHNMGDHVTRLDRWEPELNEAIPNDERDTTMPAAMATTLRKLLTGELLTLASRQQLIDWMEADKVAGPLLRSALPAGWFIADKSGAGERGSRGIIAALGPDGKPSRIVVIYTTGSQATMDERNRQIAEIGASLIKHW

[9] = biological target: Nucleotide-binding oligomerization domain-containing protein 2 (Homo sapiens, UniProt Q9HC29); assay: inhibition of NOD2-driven NF-kB reporter – cell-based, luminescence, uHTS, HEK293 (AID 1566); type: functional
Chain of Nucleotide-binding oligomerization domain-containing protein 2 (Q9HC29 whole entry, the tested form may be a part): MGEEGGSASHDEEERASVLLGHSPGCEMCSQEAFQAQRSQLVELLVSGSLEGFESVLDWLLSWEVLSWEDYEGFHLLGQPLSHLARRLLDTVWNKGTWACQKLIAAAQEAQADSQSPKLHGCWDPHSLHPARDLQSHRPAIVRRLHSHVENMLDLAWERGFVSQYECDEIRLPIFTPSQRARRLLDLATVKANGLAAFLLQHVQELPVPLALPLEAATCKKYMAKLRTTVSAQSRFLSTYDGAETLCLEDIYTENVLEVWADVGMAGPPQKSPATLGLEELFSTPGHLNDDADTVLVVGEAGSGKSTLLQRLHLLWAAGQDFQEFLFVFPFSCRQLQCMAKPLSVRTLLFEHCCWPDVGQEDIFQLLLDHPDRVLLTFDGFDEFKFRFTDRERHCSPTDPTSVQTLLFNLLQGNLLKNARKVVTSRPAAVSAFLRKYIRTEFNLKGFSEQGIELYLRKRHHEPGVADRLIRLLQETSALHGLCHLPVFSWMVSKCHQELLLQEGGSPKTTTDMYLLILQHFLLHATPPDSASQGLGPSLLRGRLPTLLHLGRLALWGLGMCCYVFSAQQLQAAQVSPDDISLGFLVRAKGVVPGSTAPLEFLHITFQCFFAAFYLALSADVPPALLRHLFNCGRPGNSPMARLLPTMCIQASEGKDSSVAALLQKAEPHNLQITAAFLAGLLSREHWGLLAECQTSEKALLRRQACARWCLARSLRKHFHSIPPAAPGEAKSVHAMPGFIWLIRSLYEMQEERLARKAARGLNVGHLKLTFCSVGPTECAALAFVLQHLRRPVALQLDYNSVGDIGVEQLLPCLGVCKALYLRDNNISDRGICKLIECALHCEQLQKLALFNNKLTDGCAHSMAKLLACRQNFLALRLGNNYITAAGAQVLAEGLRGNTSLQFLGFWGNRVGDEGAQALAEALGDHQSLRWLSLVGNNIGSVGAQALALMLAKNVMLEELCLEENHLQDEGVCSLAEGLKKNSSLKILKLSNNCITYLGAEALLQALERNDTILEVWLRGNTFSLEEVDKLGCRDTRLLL

[10] = loss of viability in HepG2 cells – cell-based, CellTiter-Glo, cherry-picked, cytotoxicity control for Shn3 inhibitor project, dose response (AID 624134); type: functional
[11] = biological target: T2, Fatty acid synthase; assay: inhibition of human FAS-TE enzyme activity – biochemical, kinetic fluorescence intensity, dose response (AID 624326); type: functional;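 also: rate of fluorescence rise from hydrolysis of a fluorogenic O-methyl fluorescein ester substrate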
[12] = tested on: HEK293; assay: cells; type: functional, cell-based; settings: Homo sapiens; remark: listed apart in the source
[13] = non-specific 3'UTR reporter inhibition in Clone20-Shn3RL – cell-based, Renilla luciferase, cherry-picked, counter-screen for Shn3 inhibitor project, dose response (AID 624133); type: functional
[14] = tested on: INS1; assay: INS-1E survival protection against cytokine death – cell-based, luminescence, retest, dose response (AID 449756); type: functional; settings: Rattus norvegicus;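 also: cell death triggered by IL-1 beta plus TNF-alpha plus IFN-gamma mixture; protective hits raise ATP signal compared with cytokine alone wells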
[15] = tested on: HEK293; assay: inhibition of NOD1-driven NF-kB reporter – cell-based, luminescence, uHTS, primary screen (AID 1578); type: functional; settings: Homo sapiens
[16] = tested on: CHO; assay: CHO cell viability loss, potency – luminescence, cytotoxicity control for TLR9-MyD88 binding inhibitor project, dose response (AID 588339); type: functional, cell-based, hamster; settings: Cricetulus griseus;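 also: CHO cells stably coexpressing TLR9 and MyD88 fusions from primary screen; compound exposure lasted 48 hours before viability readout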
[17] = reduction of Shn3 3'UTR-driven luciferase in osteoblasts – cell-based, Clone20 osteoblasts, firefly luciferase, cherry-picked, dose response (AID 624132); type: functional;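 also: firefly luciferase luminescence from reporter carrying the Shn3 3'UTR in osteoblasts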
[18] = biological target: T1, High affinity choline transporter 1; assay: human choline transporter radiolabel uptake blockers – cell-based, 3H-choline uptake, CHT LV-AA trafficking mutant, CRC, dose response (AID 602208); type: functional
[19] = inhibition of ARNT PAS-B/TACC3 complex formation – biochemical, AlphaScreen, cherry-picked samples, confirmation (AID 651703); type: functional, Homo sapiens;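 also: His-tagged ARNT PAS-B domain paired with GST-TACC3 E629A dimer coactivator fragment; potency of inhibitors that break up the complex and lower AlphaScreen signal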

SMILES: O=[N+]([O-])c1cc(C(F)(F)F)cc([N+](=O)[O-])c1N1CCCNCC1
- IC50 [1]: 10.2 µM (active)
- IC50 [2]: 4.01 µM (active)

SMILES: CC(C)(C)OC(=O)NCc1ccc(NC(=O)c2[nH]cnc2C(=O)N[C@@H](Cc2ccccc2)C(=O)OCc2ccccc2)cc1
- IC50 [3]: > 64.6 µM (inactive)

SMILES: CC(C)(C)OC(=O)NCc1ccc(NC(=O)c2nc[nH]c2C(=O)N[C@@H](Cc2ccccc2)C(=O)OCc2ccccc2)cc1
- IC50 [4]: > 64.6 µM (inactive)

SMILES: CCN(c1ccccc1)S(=O)(=O)c1ccc(NC(=O)c2nc(S(C)(=O)=O)ncc2Cl)cc1
- IC50 [5]: > 20 µM (inactive)
- IC50 [6]: 8.24 µM (inactive)
- IC50 [7]: 6.22 µM (active)
- IC50 [8]: 7.96 µM (active)
- EC50 [9]: > 20 µM (inactive)
- AC50 [10]: 15.2 µM (active)
- IC50 [11]: 3.48 µM (active)
- IC50 [12]: > 20 µM (inactive)
- AC50 [13]: 4.56 µM (active)
- AC50 [14]: 5.28 µM (active)
- EC50 [15]: > 20 µM (inactive)
- IC50 [16]: 2.53 µM (active)
- AC50 [17]: 0.562 µM (active)

SMILES: O=C1OCCC1Sc1nc2ccccc2n1Cc1ccccc1 (stereo not drawn)
- IC50 [3]: > 64.6 µM (inactive)
- IC50 [4]: 10.9 µM (inactive)

SMILES: COc1ccc(C(=O)NCCC2=CCCCC2)cc1OC1CCN(C(C)C)CC1
- IC50 [1]: 2.63 µM (active)
- IC50 [18]: 16 µM (active)
- IC50 [2]: 3.16 µM (active)

SMILES: C#CCOCCOCCOCCNc1nc(N2CCN(C(=O)[C@H](CCCCN)n3cc([C@@H](N)CO)nn3)CC2)nc(N2CCN(C(=O)[C@H](Cc3ccc(O)cc3)n3cc([C@@H](N)CC(C)C)nn3)CC2)n1
- AC50 [19]: 121 µM (active)
